According to patent US20260191841A1, “TREATMENT OF CHRONIC KIDNEY DISEASE IN TYPE I DIABETES MELLITUS” (BAYER AKTIENGESELLSCHAFT, priority 2022, published 2026):

Columns and labels:
[1] = patients with CKD and T1D; vs placebo; cited from earlier work
[2] = FIDELITY UACR mixed model, restricted to patients with UACR>=200 mg/g and eGFR between 25 and 90 ml/min/1.73 m^2; assay type: in vivo, human; conditions: FIDELITY restricted population
Method: UACR will be analyzed assuming a lognormal distribution. Assumptions for the UACR ratios to baseline at 6 months are based on the FIDELITY UACR mixed model restricted to patients with UACR>=200 mg/g and eGFR between 25 and 90 ml/min/1.73 m^2.
In the FIDELITY restricted population, the UACR ratio to baseline after 4 months was 0.61 and 0.53 after 12 months in the finerenone group. The value, using interpolation, at 6 months was estimated to be 0.59. As a conservative approach, we will assume the treatment ratio (finerenone/placebo) over 6 months to be 0.7 (i.e., the difference in UACR ratio to baseline between finerenone and placebo to be 30%). The standard deviation was calculated to range from 0.75 and 1.0 between month 4 and 12. Using linear interpolation, at month 6 it was assumed to be approximately 0.8.

[3] = patients with T2D; coadministered with an ACEI or an ARB; cited from earlier work

| Compound | albuminuria [1] | rate of kidney function decline [1] | UACR ratio to baseline ([2]; after 4 months, finerenone group) | UACR ratio to baseline ([2]; after 12 months, finerenone group) | UACR ratio to baseline ([2]; at 6 months, estimated using interpolation) | cardiovascular morbidity [3] | progression of diabetic kidney disease [3] |
| --- | --- | --- | --- | --- | --- | --- | --- |
| Oc1ncnc2[nH]ncc12 [allopurinol] | did not reduce albuminuria | nor delay the rate of kidney function decline | – | – | – | – | – |
| CCOc1ncc(C)c2c1[C@H](c1ccc(C#N)cc1OC)C(C(N)=O)=C(C)N2 [finerenone, (4S)-4-(4-cyano-2-methoxyphenyl)-5-ethoxy-2,8-dimethyl-1,4-dihydro-1,6-naphthyridine-3-carboxamide] | – | – | 0.61 | 0.53 | 0.59 | reduces cardiovascular morbidity | delays the progression of diabetic kidney disease |
